Laboratory results published in US20240246918A1, “COMPOUNDS AND COMPOSITIONS AS EIF4E INHIBITORS AND THE USES THEREOF” (Ribometrix, Inc., priority 2022, published 2024).

Assays:
human eIF4E protein = molecular target: T1, human eIF4E protein (Homo sapiens, UniProt P06730); assay: Biochemical competitive binding assay (TR-FRET competition, EDA-m7GDP-ATTO-647N probe); settings: read-out: hEIF4E TR-FRET IC50
T1 construct: purchased Novus NBP-45314
Outline: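 IC50 values come from 4-parameter fits of the normalized 665/620 nm TR-FRET ratio. Compound was first incubated 15 min with 4 nM recombinant His-eIF4E bound to 2.5 nM Eu-anti-His antibody, then 15 min with 5 nM m7GDP-ATTO-647N tracer, in pH 7.5 HEPES buffer with 100 mM KCl, Tween-20 and BSA.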

[1] = test system: COLO 205 colorectal tumor cells; assay: Tumor cell viability inhibition assay (CellTiter-Glo 2.0, 72 hours); format: cell-based; settings: COLO 205 cell viability
Outline: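 IC50 derived by 4-parameter fitting after normalizing luminescence to DMSO and max-inhibition wells. Compounds tested as 11 concentrations in 4-fold steps on COLO 205 cells seeded at 1500 per well in RPMI-1640/10% FBS; ATP content measured with CellTiter-Glo 2.0 after 72 h.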

T1 sequence (P06730 whole entry): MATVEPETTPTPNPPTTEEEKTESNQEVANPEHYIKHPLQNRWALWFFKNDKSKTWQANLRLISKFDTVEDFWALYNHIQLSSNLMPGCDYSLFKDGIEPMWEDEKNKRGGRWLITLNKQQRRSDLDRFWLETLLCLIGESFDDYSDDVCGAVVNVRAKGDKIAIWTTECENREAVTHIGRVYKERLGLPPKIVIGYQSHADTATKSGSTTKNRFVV

SMILES	IC50 (human eIF4E protein) [µM]	IC50 ([1]; Homo sapiens, COLO 205, 72 h) [µM]	IC50 [1] [µM]
Cc1cc(-c2cc(Cl)ccc2OCCn2c(C)nc3c(c2=O)C[C@H](N2CCC(n4cccn4)CC2)CC3)c2scc(C(=O)O)c2n1 (single isomer, unassigned) [Compound 473]	< 0.1	< 5	–
Cc1cc(-c2cc(Cl)ccc2OCCn2c(C)nc3c(c2=O)C[C@@H](N2CCC(C(F)(F)F)CC2)CC3)c2scc(C(=O)O)c2n1 (single isomer, unassigned) [Compound 374]	< 0.1	< 5	–
Cc1cc(-c2cc(Cl)ccc2OCCn2c(C)nc3c(c2=O)CC(N2CCC4(CC2)CNCCO4)CC3)c2scc(C(=O)O)c2n1 (single isomer, unassigned) [Compound 527]	< 0.1	> 20	–
Cc1cc(-c2cc(Cl)ccc2OCCn2c(C)nc3c(c2=O)C[C@H](N2CCO[C@H](COC(F)(F)F)C2)CC3)c2scc(C(=O)O)c2n1 (single isomer, unassigned) [Compound 478]	< 0.1	< 5	–
Cc1cc(-c2cc(Cl)ccc2OCCn2c(C)nc3c(c2=O)C[C@H](N2CCCC[C@@H]2c2nccs2)CC3)c2scc(C(=O)O)c2n1 (single isomer, unassigned) [Compound 547]	< 0.1	< 5	–
Cc1cc(-c2cc(Cl)ccc2OCCn2c(C)nc3c(c2=O)CC(N2CCC4(CCN(CC(F)(F)F)C4)C2)CC3)c2scc(C(=O)O)c2n1 (single isomer, unassigned) [Compound 506]	< 0.1	–	< 5
Cc1cc(-c2cc(Cl)ccc2OCCn2c(C)nc3c(c2=O)C(C)(C)C(N)CC3)c2scc(C(=O)O)c2n1 (stereo not drawn) [Compound 123, 7-(2-(2-(6-amino-2,5,5-trimethyl-4-oxo-5,6,7,8-tetrahydroquinazolin-3(4H)-yl)ethoxy)-5-chlorophenyl)-5-methylthieno[3,2-b]pyridine-3-carboxylic acid]	0.5 to 5	> 20	–
Cc1cc(-c2cc(Cl)ccc2OCCn2c(C)nc3c(c2=O)C[C@@H](N2CCC[C@H](C(F)F)C2)CC32CC2)c2scc(C(=O)O)c2n1 (single isomer, unassigned) [Compound 610]	< 0.1	< 5	–
Cc1cc(-c2cc(Cl)ccc2OCCn2c(C)nc3c(c2=O)CC(C)(N2CCC4(CC2)CC4(F)F)CC3)c2scc(C(=O)O)c2n1 (single isomer, unassigned) [Compound 556]	< 0.1	< 5	–
Cc1cc(-c2cc(Cl)ccc2OCCn2c(C)nc3c(c2=O)C[C@H](N2CCC[C@]4(C2)CC4(F)F)CC3)c2scc(C(=O)O)c2n1 (single isomer, unassigned) [Compound 137]	< 0.1	< 5	–
Cc1cc(-c2cc(Cl)ccc2OCCn2c(C)nc3c(c2=O)C[C@H](N2CCC[C@@H](C(F)F)C2)CC3)c2scc(C(=O)O)c2n1 (single isomer, unassigned) [Compound 116]	< 0.1	< 5	–
Cc1cc(-c2cc(Cl)ccc2OCCn2c(C)nc3c(c2=O)C[C@@H](N2CCC(COC(F)(F)F)CC2)CC3)c2scc(C(=O)O)c2n1 (single isomer, unassigned) [Compound 407]	< 0.1	< 5	–
Cc1cc(-c2cc(Cl)ccc2OCCn2c(C)nc3c(c2=O)C[C@@H](N2CCCC(F)(F)CC2)CC3)c2scc(C(=O)O)c2n1 (single isomer, unassigned) [Compound 402]	< 0.1	< 5	–
COC1CCN(C2CCc3nc(C)n(CCOc4ccc(Cl)cc4-c4cc(C)nc5c(C(N)=O)csc45)c(=O)c3C2)CC1 (stereo not drawn) [Compound 133]	0.1 to 0.5	5 to 20	–
Cc1cc(-c2cc(Cl)ccc2OCCn2c(C)nc3c(c2=O)C[C@@H](N2[C@@H]4CC[C@H]2C[C@H](OC(F)(F)F)C4)CC3)c2scc(C(=O)O)c2n1 (single isomer, unassigned) [Compound 397]	0.1 to 0.5	5 to 20	–
Cc1cc(-c2cc(Cl)ccc2OCCn2c(C)nc3c(c2=O)C[C@@H](N2CCCC[C@H]2c2cccc(F)c2)CC32CC2)c2scc(C(=O)O)c2n1 (single isomer, unassigned) [Compound 628, 7-(5-chloro-2-(2-(6′-(2-(3-fluorophenyl)piperidin-1-yl)-2′-methyl-4′-oxo-6′,7′-dihydro-4′H-spiro[cyclopropane-1,8′-quinazolin]-3′(5′H)-yl)ethoxy)phenyl)-5-methylthieno[3,2-b]pyridine-3-carboxylic acid]	< 0.1	< 5	–
Cc1cc(-c2cc(Cl)ccc2OCCn2c(C)nc3c(c2=O)C[C@@H](N2CCC[C@@H](C(F)(F)F)C2)CC3)c2scc(C(=O)O)c2n1 (single isomer, unassigned) [Compound 383]	< 0.1	5 to 20	–
CO[C@@H]1CCN([C@H]2CCc3nc(C)n(CCOc4ccc(Cl)cc4-c4cc(C)nc5c(C(=O)O)csc45)c(=O)c3C2)C[C@@H]1F (single isomer, unassigned) [Compound 367]	< 0.1	< 5	–
Cc1cc(-c2cc(Cl)ccc2OCCn2c(C)nc3c(c2=O)CC(N2CCC(OC(F)(F)F)CC2)CC3(C)C)c2scc(C(=O)O)c2n1 (single isomer, unassigned) [Compound 443, 7-(5-chloro-2-(2-(2,8,8-trimethyl-4-oxo-6-(4-(trifluoromethoxy)piperidin-1-yl)-5,6,7,8-tetrahydroquinazolin-3(4H)-yl)ethoxy)phenyl)-5-methylthieno[3,2-b]pyridine-3-carboxylic acid]	< 0.1	–	< 5
Cc1cc(-c2cc(Cl)ccc2OCCn2c(C)nc3c(c2=O)C[C@H](N2CCC[C@H](C(F)F)C2)CC3)c2scc(C(=O)O)c2n1 (single isomer, unassigned) [Compound 117]	< 0.1	< 5	–
Cc1cc(-c2cc(Cl)ccc2OCCn2c(C)nc3c(c2=O)C[C@H](N2C[C@@H]4CC(F)(F)C[C@@H]4C2)CC32CC2)c2scc(C(=O)O)c2n1 (single isomer, unassigned) [Compound 618]	< 0.1	< 5	–
Cc1cc(-c2cc(Cl)ccc2OCCn2c(C)nc3c(c2=O)C[C@@H](N2CCCC[C@@H]2c2cccc(F)c2)CC3)c2scc(C(=O)O)c2n1 (single isomer, unassigned) [Compound 543]	< 0.1	> 20	–
CO[C@H](C1CCN([C@@H]2CCc3nc(C)n(CCOc4ccc(Cl)cc4-c4cc(C)nc5c(C(=O)O)csc45)c(=O)c3C2)CC1)C(F)(F)F (single isomer, unassigned) [Compound 552]	< 0.1	< 5	–
Cc1cc(-c2cc(Cl)ccc2OCCn2c(C)nc3c(c2=O)C[C@@H](N2CCC(n4ccnn4)CC2)CC3)c2scc(C(=O)O)c2n1 (single isomer, unassigned) [Compound 423]	< 0.1	5 to 20	–
Cc1cc(-c2cc(Cl)ccc2OCCn2c(C)nc3c(c2=O)C[C@H](N2C[C@@H]4CC[C@H]2CC4OC(F)(F)F)CC32CC2)c2scc(C(=O)O)c2n1 (single isomer, unassigned) [Compound 604]	< 0.1	< 5	–
Cc1cc(-c2cc(Cl)ccc2OCCn2c(C)nc3c(c2=O)CC(N2CC(F)(F)C(F)(F)C2)CC3)c2scc(C(=O)O)c2n1 (stereo not drawn) [Compound 119]	< 0.1	5 to 20	–
Cc1cc(-c2cc(Cl)ccc2OCCn2c(C)nc3c(c2=O)C[C@@H](N2CCC(c4cn(C)cn4)CC2)CC3)c2scc(C(=O)O)c2n1 (single isomer, unassigned) [Compound 487]	< 0.1	> 20	–
